In publication PMC3656107, “Polymorphisms in the F8 Gene and MHC-II Variants as Risk Factors for the Development of Inhibitory Anti-Factor VIII Antibodies during the Treatment of Hemophilia A: A Computational Assessment” (PLoS Computational Biology, 2013):

Experiments:
MHC-II DRB1*04:01 [1] = biological target: T1, MHC-II DRB1*04:01 (Homo sapiens, UniProt P01903+P01911, A100K/A169T/F76Y/I96L/K127E/L162R/M171V/N62H/P40V/Q125Y/R42H/S133A/S149N/S66Y/V115G/V209L/W38E); experiment: Cell-free REVEAL class II binding assay; details: signal of test peptide as percentage of allele-specific positive control peptide, fluorescence, conformation-specific monoclonal antibody
Excerpt: (§1) We used a proprietary high throughput, REVEAL binding assay (ProImmune, www.proimmune.com) to estimate the binding of individual test peptides to the following MHC-II variants: DRB1*03:01, DRB1*04:01, DRB1*07:01, DRB1*11:01, DRB1*15:01 and DRB1*15:03 [28]. Detection of a peptide binding to each MHC-II protein is based on the presence or absence of the native conformation of the MHC-peptide complex. The peptide-MHC-II complex is detected by an increase in a fluorescence signal due to the binding of a specific monoclonal antibody. Each test-peptide is given a score relative to a positive control peptide, which is a known T-cell epitope for that MHC-II molecule. The score is reported quantitatively as a percentage of the signal generated by the test peptide compared with the positive control peptide. Assay performance is evaluated by including in each set of measurements an intermediate control peptide which is known to bind the MHC-II molecule but with a lower affinity than the positive control peptide. Note that the positive control peptide used to determine the binding score is different from the positive control peptides depicted in the figures, which are known T-cell epitopes identified in the FVIII molecule.

MHC-II DRB1*07:01 [2] = biological target: T2, MHC-II DRB1*07:01 (Homo sapiens, UniProt P01903+P01911, A100R/A102G/A103Q/D57E/D86V/E43K/F76Y/K127E/L162R/M171V/P40G/Q125H/Q99D/R33Q/R42Y/R54Q/S133A/S66F/T210M/V115G/Y107V/Y59L/Y89S); experiment: Cell-free REVEAL class II binding assay; details: signal of test peptide as percentage of allele-specific positive control peptide, fluorescence, conformation-specific monoclonal antibody
Excerpt: as §1

MHC-II DRB1*03:01 [3] = biological target: T3, MHC-II DRB1*03:01 (Homo sapiens, UniProt P01903+P01911, A100K/A102G/A103R/A169T/F55Y/I96L/K41T/L162R/M171V/P40S/Q125H/Q178H/Q39Y/R42S/S66N/T106N/T262R/W38E/Y61H); experiment: Cell-free REVEAL class II binding assay; details: signal of test peptide as percentage of allele-specific positive control peptide, fluorescence, conformation-specific monoclonal antibody
Excerpt: as §1

MHC-II DRB1*15:03 [4] = biological target: T4, MHC-II DRB1*15:03 (Homo sapiens, UniProt P01903+P01911, Y59H); experiment: Cell-free REVEAL class II binding assay; details: signal of test peptide as percentage of allele-specific positive control peptide, fluorescence, conformation-specific monoclonal antibody
T4 construct: purchased ProImmune
Excerpt: as §1

MHC-II DRB1*15:01 [5] = biological target: T5, MHC-II DRB1*15:01 (Homo sapiens, UniProt P01903+P01911); experiment: Cell-free REVEAL class II binding assay; details: signal of test peptide as percentage of allele-specific positive control peptide, fluorescence, conformation-specific monoclonal antibody
T5 construct: purchased ProImmune
Excerpt: as §1

MHC-II DRB1*11:01 [6] = biological target: T6, MHC-II DRB1*11:01 (Homo sapiens, UniProt P01903+P01911, A100R/A169T/A87E/I96F/K41T/L162R/M171V/P40S/Q125H/Q178H/Q39Y/Q99D/R42S/S66Y/T262R/V115G/W38E); experiment: Cell-free REVEAL class II binding assay; details: signal of test peptide as percentage of allele-specific positive control peptide, fluorescence, conformation-specific monoclonal antibody
Excerpt: as §1

MHC-II DRB1*04:01 [7] = biological target: T1, MHC-II DRB1*04:01; experiment: Cell-free REVEAL class II stability assay; details: half-life of peptide-MHC-II complex (h, capped at 120) x Binding Score / 100, conformational ELISA
Procedure: (§2) We measured the half-life of each peptide-MHC-II complex using REVEAL peptide-MHC affinity assays developed by ProImmune Ltd. (Oxford, UK). On-rates of peptides were measured over a 96-hr period at 10°C. A unique positive control peptide was used for each MHC-II allele. Samples of assembling peptide-MHC complexes were taken at defined time points and snap-frozen in liquid nitrogen prior to analysis. Assembly of peptide-MHC complexes was detected using a conformational ELISA involving an anti-HLA antibody. On-rates were calculated by fitting data to a one-phase association curve: [drawing 1] To determine the off-rates of the peptides, samples of dissociating complexes were taken at defined time points and frozen in liquid nitrogen prior to analysis. Percent denaturation of peptide-MHC complexes was also detected using a conformational ELISA. Off-rates were calculated by fitting data to a one-phase dissociation curve: [drawing 2] On- and off-rate half-life values (t1/2) were calculated from the rate constant (k) using the following equation: [drawing 3] To obtain a normalized stability score, the half-life values were multiplied by the Binding Score (see above) and divided by 100.

MHC-II DRB1*07:01 [8] = biological target: T2, MHC-II DRB1*07:01; experiment: Cell-free REVEAL class II stability assay; details: half-life of peptide-MHC-II complex (h, capped at 120) x Binding Score / 100, conformational ELISA
Procedure: as §2

MHC-II DRB1*03:01 [9] = biological target: T3, MHC-II DRB1*03:01; experiment: Cell-free REVEAL class II stability assay; details: half-life of peptide-MHC-II complex (h, capped at 120) x Binding Score / 100, conformational ELISA
Procedure: as §2

MHC-II DRB1*15:03 [10] = biological target: T4, MHC-II DRB1*15:03; experiment: Cell-free REVEAL class II stability assay; details: half-life of peptide-MHC-II complex (h, capped at 120) x Binding Score / 100, conformational ELISA
Procedure: as §2

MHC-II DRB1*15:01 [11] = biological target: T5, MHC-II DRB1*15:01; experiment: Cell-free REVEAL class II stability assay; details: half-life of peptide-MHC-II complex (h, capped at 120) x Binding Score / 100, conformational ELISA
Procedure: as §2

MHC-II DRB1*11:01 [12] = biological target: T6, MHC-II DRB1*11:01; experiment: Cell-free REVEAL class II stability assay; details: half-life of peptide-MHC-II complex (h, capped at 120) x Binding Score / 100, conformational ELISA
Procedure: as §2

T4 sequence (P01903 26-254, other chains not shown): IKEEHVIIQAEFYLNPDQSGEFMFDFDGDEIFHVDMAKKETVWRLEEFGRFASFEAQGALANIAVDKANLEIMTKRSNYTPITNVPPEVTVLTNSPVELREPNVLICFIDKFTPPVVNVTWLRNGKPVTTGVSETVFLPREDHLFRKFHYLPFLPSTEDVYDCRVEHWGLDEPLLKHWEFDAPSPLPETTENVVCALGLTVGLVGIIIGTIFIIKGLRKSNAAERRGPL
T3 sequence (P01903 26-254 limits assumed, other chains not shown): as the sequence (P01903 26-254, other chains not shown) above
T6 sequence (P01903 26-254 limits assumed, other chains not shown): as the sequence (P01903 26-254, other chains not shown) above

KTDPWFAHRTPMPKI [synthetic wild type FVIII 15 mer peptide, region of ns-SNP R776G]
Binding Score (MHC-II DRB1*04:01 [1]): 8.2% | Binding Score (MHC-II DRB1*07:01 [2]): 4.0% | Binding Score (MHC-II DRB1*03:01 [3]): 0.0% | Binding Score (MHC-II DRB1*15:03 [4]): 0.2% | Binding Score (MHC-II DRB1*15:01 [5]): 0.1% | Binding Score (MHC-II DRB1*11:01 [6]): 0.5% | Stability Index (MHC-II DRB1*04:01 [7]): 0.5 | Stability Index (MHC-II DRB1*07:01 [8]): 1.2 | Stability Index (MHC-II DRB1*03:01 [9]): 0.0 | Stability Index (MHC-II DRB1*15:03 [10]): 0.0 | Stability Index (MHC-II DRB1*15:01 [11]): 0.1 | Stability Index (MHC-II DRB1*11:01 [12]): 0.1

LFLLSTRQNVEGSYD [synthetic wild type FVIII 15 mer peptide, region of ns-SNP D1241E]
Binding Score (MHC-II DRB1*04:01 [1]): 17.9% | Binding Score (MHC-II DRB1*07:01 [2]): 0.3% | Binding Score (MHC-II DRB1*03:01 [3]): 30.5% | Binding Score (MHC-II DRB1*15:03 [4]): 0.2% | Binding Score (MHC-II DRB1*15:01 [5]): 1.0% | Binding Score (MHC-II DRB1*11:01 [6]): 92.0% | Stability Index (MHC-II DRB1*04:01 [7]): 2.8 | Stability Index (MHC-II DRB1*07:01 [8]): 0.3 | Stability Index (MHC-II DRB1*03:01 [9]): 17.5 | Stability Index (MHC-II DRB1*15:03 [10]): 0.0 | Stability Index (MHC-II DRB1*15:01 [11]): 0.1 | Stability Index (MHC-II DRB1*11:01 [12]): 23.6

LQVDFQKTMKVTGVT [synthetic wild type FVIII 15 mer peptide, region of ns-SNP M2238V]
Binding Score (MHC-II DRB1*04:01 [1]): 11.6% | Binding Score (MHC-II DRB1*07:01 [2]): 0.1% | Binding Score (MHC-II DRB1*03:01 [3]): 30.7% | Binding Score (MHC-II DRB1*15:03 [4]): 1.5% | Binding Score (MHC-II DRB1*15:01 [5]): 4.4% | Binding Score (MHC-II DRB1*11:01 [6]): 235.0% | Stability Index (MHC-II DRB1*04:01 [7]): 0.9 | Stability Index (MHC-II DRB1*07:01 [8]): 0.1 | Stability Index (MHC-II DRB1*03:01 [9]): 13.5 | Stability Index (MHC-II DRB1*15:03 [10]): 0.0 | Stability Index (MHC-II DRB1*15:01 [11]): 0.3 | Stability Index (MHC-II DRB1*11:01 [12]): 62.0

LSTRQNVEGSYDGAY [synthetic wild type FVIII 15 mer peptide, region of ns-SNP D1241E]
Binding Score (MHC-II DRB1*04:01 [1]): 15.2% | Binding Score (MHC-II DRB1*07:01 [2]): 0.0% | Binding Score (MHC-II DRB1*03:01 [3]): 0.0% | Binding Score (MHC-II DRB1*15:03 [4]): 0.0% | Binding Score (MHC-II DRB1*15:01 [5]): 0.0% | Binding Score (MHC-II DRB1*11:01 [6]): 0.2% | Stability Index (MHC-II DRB1*04:01 [7]): 3.2 | Stability Index (MHC-II DRB1*07:01 [8]): 0.0 | Stability Index (MHC-II DRB1*03:01 [9]): 0.0 | Stability Index (MHC-II DRB1*15:03 [10]): 0.0 | Stability Index (MHC-II DRB1*15:01 [11]): 0.0 | Stability Index (MHC-II DRB1*11:01 [12]): 0.0

MKVTGVTTQGVKSLL [synthetic wild type FVIII 15 mer peptide, region of ns-SNP M2238V]
Binding Score (MHC-II DRB1*04:01 [1]): 7.8% | Binding Score (MHC-II DRB1*07:01 [2]): 0.0% | Binding Score (MHC-II DRB1*03:01 [3]): 0.0% | Binding Score (MHC-II DRB1*15:03 [4]): 0.0% | Binding Score (MHC-II DRB1*15:01 [5]): 1.4% | Binding Score (MHC-II DRB1*11:01 [6]): 0.1% | Stability Index (MHC-II DRB1*04:01 [7]): 0.8 | Stability Index (MHC-II DRB1*07:01 [8]): 0.0 | Stability Index (MHC-II DRB1*03:01 [9]): 0.0 | Stability Index (MHC-II DRB1*15:03 [10]): 0.0 | Stability Index (MHC-II DRB1*15:01 [11]): 0.8 | Stability Index (MHC-II DRB1*11:01 [12]): 0.0

NNPKEWLQVDFQKTM [synthetic wild type FVIII 15 mer peptide, region of ns-SNP M2238V]
Binding Score (MHC-II DRB1*04:01 [1]): 1.7% | Binding Score (MHC-II DRB1*07:01 [2]): 0.6% | Binding Score (MHC-II DRB1*03:01 [3]): 12.6% | Binding Score (MHC-II DRB1*15:03 [4]): 0.1% | Binding Score (MHC-II DRB1*15:01 [5]): 0.1% | Binding Score (MHC-II DRB1*11:01 [6]): 3.5% | Stability Index (MHC-II DRB1*04:01 [7]): 0.1 | Stability Index (MHC-II DRB1*07:01 [8]): 0.1 | Stability Index (MHC-II DRB1*03:01 [9]): 0.0 | Stability Index (MHC-II DRB1*15:03 [10]): 0.1 | Stability Index (MHC-II DRB1*15:01 [11]): 0.2 | Stability Index (MHC-II DRB1*11:01 [12]): 0.1
